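Where inhibition never reached the appropriate level, the endpoint shown equals the highest concentration tested. Otherwise, values were interpolated linearly from a five-concentration, 48-hour dose response in 96-well plates. GI50 = concentration required for 50% inhibition of growth.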 The source made the active and inactive calls. Cut-off read from the data, not from the text of the source: active = GI50 up to about 1.1 µM and inactive = higher.
Columns and labels:
Assay in all cases: NCI anticancer screen, dose series, 48 h
A498 = test system: A498
ACHN = test system: ACHN
CAKI-1 = test system: CAKI-1
DU-145 = test system: DU-145
HOP-92 = test system: HOP-92
KM12 = test system: KM12
M14 = test system: M14
MCF7 = test system: MCF7
MDA-MB-435 = test system: MDA-MB-435
NCI/ADR-RES = test system: NCI/ADR-RES
OVCAR-3 = test system: OVCAR-3
RXF 393 = test system: RXF 393
SF-295 = test system: SF-295
SK-MEL-2 = test system: SK-MEL-2
SK-MEL-5 = test system: SK-MEL-5
SN12C = test system: SN12C
SNB-75 = test system: SNB-75
SR = test system: SR
UO-31 = test system: UO-31
K562 = test system: K562

`Cc1cn(C2CC(n3cc(Cn4cc(I)c(=O)[nH]c4=O)nn3)C(CO)O2)c(=O)[nH]c1=O` (stereo not given) was tested, and the GI50 (A498) was > 100 µM (inactive), the GI50 (ACHN) was > 100 µM (inactive) and the GI50 (CAKI-1) was > 100 µM (inactive). The GI50 (DU-145) was > 100 µM (inactive), the GI50 (HOP-92) was > 100 µM (inactive) and the GI50 (KM12) was > 100 µM (inactive). The GI50 (M14) was > 100 µM (inactive), the GI50 (MCF7) was > 100 µM (inactive) and the GI50 (MDA-MB-435) was > 100 µM (inactive). For the same molecule, the GI50 (NCI/ADR-RES) was > 100 µM (inactive), the GI50 (OVCAR-3) was > 100 µM (inactive) and the GI50 (RXF 393) was > 100 µM (inactive). The GI50 (SF-295) was > 100 µM (inactive), the GI50 (SK-MEL-2) was > 100 µM (inactive) and the GI50 (SK-MEL-5) was > 100 µM (inactive). The GI50 (SN12C) was > 100 µM (inactive), the GI50 (SNB-75) was > 100 µM (inactive) and the GI50 (SR) was < 0.01 µM (active). The GI50 (UO-31) was > 10 µM (inactive).

`c1ccc2c(c1)nc1n2CNCC1` was tested, and the GI50 (A498) was > 100 µM (inactive), the GI50 (ACHN) was > 100 µM (inactive) and the GI50 (CAKI-1) was 49 µM (inactive). The GI50 (DU-145) was 43.3 µM (inactive), the GI50 (HOP-92) was > 100 µM (inactive) and the GI50 (KM12) was > 100 µM (inactive). For the same molecule, the GI50 (M14) was > 100 µM (inactive), the GI50 (MCF7) was 45.7 µM (inactive) and the GI50 (MDA-MB-435) was > 100 µM (inactive). The GI50 (NCI/ADR-RES) was > 100 µM (inactive), the GI50 (OVCAR-3) was > 100 µM (inactive) and the GI50 (RXF 393) was 90.8 µM (inactive). The GI50 (SF-295) was > 100 µM (inactive), the GI50 (SK-MEL-2) was > 100 µM (inactive) and the GI50 (SK-MEL-5) was > 100 µM (inactive). For the same molecule, the GI50 (SN12C) was > 100 µM (inactive), the GI50 (SNB-75) was 90.8 µM (inactive) and the GI50 (SR) was 29.7 µM (inactive). For the same molecule, the GI50 (UO-31) was 79.3 µM (inactive).

With `Cc1ccc2nnc(NS(=O)(=O)c3cc(C)c(Cl)cc3S)n2n1` the GI50 (A498) was > 100 µM (inactive), the GI50 (ACHN) was > 100 µM (inactive) and the GI50 (CAKI-1) was > 100 µM (inactive). For the same molecule, the GI50 (DU-145) was > 100 µM (inactive), the GI50 (HOP-92) was > 100 µM (inactive) and the GI50 (K562) was > 100 µM (inactive). For the same molecule, the GI50 (KM12) was > 100 µM (inactive), the GI50 (M14) was > 100 µM (inactive) and the GI50 (MCF7) was > 100 µM (inactive). The GI50 (MDA-MB-435) was > 100 µM (inactive), the GI50 (NCI/ADR-RES) was > 100 µM (inactive) and the GI50 (OVCAR-3) was > 100 µM (inactive). For the same molecule, the GI50 (RXF 393) was > 100 µM (inactive), the GI50 (SK-MEL-2) was > 100 µM (inactive) and the GI50 (SK-MEL-5) was > 100 µM (inactive). The GI50 (SN12C) was > 100 µM (inactive), the GI50 (SNB-75) was > 100 µM (inactive) and the GI50 (SR) was > 100 µM (inactive). For the same molecule, the GI50 (UO-31) was 68.5 µM (inactive).

For `CNc1ccc([N+](=O)[O-])cc1C(=O)N1CCC[C@H]1CO`, the GI50 (A498) was > 100 µM (inactive), the GI50 (ACHN) was > 100 µM (inactive) and the GI50 (CAKI-1) was > 100 µM (inactive). For the same molecule, the GI50 (DU-145) was > 100 µM (inactive), the GI50 (HOP-92) was > 100 µM (inactive) and the GI50 (K562) was > 100 µM (inactive). The GI50 (KM12) was > 100 µM (inactive), the GI50 (M14) was > 100 µM (inactive) and the GI50 (MCF7) was > 100 µM (inactive). The GI50 (MDA-MB-435) was > 100 µM (inactive), the GI50 (NCI/ADR-RES) was > 100 µM (inactive) and the GI50 (RXF 393) was > 100 µM (inactive). The GI50 (SF-295) was > 100 µM (inactive), the GI50 (SK-MEL-2) was > 100 µM (inactive) and the GI50 (SK-MEL-5) was > 100 µM (inactive). For the same molecule, the GI50 (SN12C) was > 100 µM (inactive), the GI50 (SNB-75) was > 100 µM (inactive) and the GI50 (SR) was > 100 µM (inactive). For the same molecule, the GI50 (UO-31) was > 100 µM (inactive).

With `O=C(N/N=C\c1ccc([N+](=O)[O-])cc1)Nc1ccccc1` the GI50 (A498) was > 100 µM (inactive), the GI50 (CAKI-1) was > 100 µM (inactive) and the GI50 (DU-145) was > 100 µM (inactive). For the same molecule, the GI50 (HOP-92) was > 100 µM (inactive), the GI50 (K562) was > 100 µM (inactive) and the GI50 (KM12) was > 100 µM (inactive). The GI50 (M14) was > 100 µM (inactive), the GI50 (MCF7) was > 100 µM (inactive) and the GI50 (MDA-MB-435) was > 100 µM (inactive). For the same molecule, the GI50 (NCI/ADR-RES) was > 100 µM (inactive), the GI50 (OVCAR-3) was > 100 µM (inactive) and the GI50 (RXF 393) was > 100 µM (inactive). The GI50 (SF-295) was > 100 µM (inactive), the GI50 (SK-MEL-2) was > 100 µM (inactive) and the GI50 (SK-MEL-5) was > 100 µM (inactive). The GI50 (SN12C) was > 100 µM (inactive), the GI50 (SNB-75) was > 100 µM (inactive) and the GI50 (SR) was > 100 µM (inactive). For the same molecule, the GI50 (UO-31) was > 100 µM (inactive).
